Reference: patent US12134663B2, “Cationic peptides for activating Lck” (Interk Peptide Therapeutics Limited, priority 2018, dated 2024)
Where no end group is shown, it is not given here. [ ]: non-standard residue; d: D form.

Experiments:
wild-type Jurkat cells [1] = assay: IL-2R alpha (CD25) expression in PMA/ionomycin stimulated Jurkat cells; format: cell-based, human; details: PMA and ionomycin stimulated; peptide 2.5 μM, 96 hours; cell lysates
Experimental: In brief, wild-type Jurkat cells (1×10^6 cells) were cultured in standard RPMI medium and 10% foetal calf serum as above and either not stimulated or stimulated with PMA (50 ng/ml) and ionomycin for a period of 96 hours. Cells were exposed to the test peptides (2.5 μM conc.) listed in FIG. 10 for the entire 96 hour culture period, and IL-2R alpha levels were determined in cell lysates using a standard commercial ELISA format as described above.

human PBMCs = assay: IFN-γ secretion by anti-CD3 stimulated PBMCs; format: cell-based; details: 48 hours; data not shown
Experimental: The ability of Lck activating polypeptides to alter IFN-γ secretion by human PBMCs was examined. In brief, anti-CD3 stimulated PBMCs were cultured together with the Lck activating polypeptides RRRRRRRRR (SEQ ID NO: 6), RVKVKVVVV-RRRRRRRRR (SEQ ID NO: 58) and RSKAKNPLY-RRRRRRRRR (SEQ ID NO: 24) for 48 hours after which supernatants were collected and assessed for IFN-γ by ELISA.

[2] = test system: anti-CD3 stimulated PBMCs; assay: IL-12p70 secretion in anti-CD3 stimulated PBMCs; format: cell-based, human; details: 24 hours
Experimental: The ability of Lck activating polypeptides to alter IL-12 (IL-12p70) secretion was examined further. In brief, anti-CD3 stimulated PBMCs were cultured together with the Lck activating polypeptides RVKVKVVVV-RRRRRRRRR (SEQ ID NO: 58, “IK15800”), RSKAKNPLY-RRRRRRRRR (SEQ ID NO: 24, “IK14800”), and RVKVKVVVV-RRRRRRRRR (SEQ ID NO: 58) and RSKAKNPLY-RRRRRRRRR (SEQ ID NO: 24) comprising only D amino acids (SEQ ID NO: 111, “IKD15800”, and SEQ ID NO: 129, “IKD14800”, respectively), in the presence and absence of anti-CD40L blocking antibody for 24 hours. Supernatants were assessed for IL-12p70 levels by ELISA.
The ability of Lck activating polypeptides to alter IL-12 (IL-12p70) secretion was examined relative to no peptide. In brief, PBMCs were cultured together with anti-CD3 (1 ug/ml) and the Lck activating polypeptide RSKAKNPLY-RRRRRRRRR (SEQ ID NO: 24) or RVKVKVVVV-RRRRRRRRR (SEQ ID NO: 58) for 24 or 72 hours. Supernatants were assessed for IL-12p70 levels by ELISA.

[3] = test system: isolated human CD8+ T cells; assay: IFN-γ secretion in stimulated CD8+ T cell assay; format: cell-based; details: anti-CD3 anti-CD28 Dynabeads, 24 hours
Experimental: (§1) The ability of Lck activating polypeptides to alter IFN-γ secretion by isolated human CD8+ T cells in a stimulated CD8+ T cell assay was examined. In brief, Isolated CD8+ T cells were stimulated with anti-CD3 anti-CD28 Dynabeads™ and cultured together with the Lck activating polypeptides RRRRRRRRR (SEQ ID NO: 6, IK00900) and RSKAKNPLY-RRRRRRRRR (SEQ ID NO: 24, IK14800) for 24 hours after which supernatants were assessed for IFN-γ by ELISA.
In brief, Isolated CD8+ T cells were stimulated with anti-CD3 anti-CD28 Dynabeads™ and cultured together with the Lck activating polypeptide RSKAKNPLY-RRRRRRRRR (SEQ ID NO: 24), comprising only D amino acids (SEQ ID NO: 129, IKD14800), for 24 hours after which supernatants were assessed for IFN-γ by ELISA.

isolated CD4+ T cells = assay: IL-21R (CD360) expression in stimulated CD4+ T cell assay; format: cell-based, human; details: anti-CD3 anti-CD28 Dynabeads; data not shown
Experimental: The effect of Lck activating polypeptides on IL-21R (CD360) expression on CD4+ T cells in a stimulated CD4+ T cell assay was examined. In brief, Isolated CD4+ T cells were stimulated with anti-CD3 anti-CD28 Dynabeads™ and cultured together with the Lck activating polypeptides RRRRRRRRR (SEQ ID NO: 6) and RSKAKNPLY-RRRRRRRRR (SEQ ID NO: 24), after which cells were assessed for IL-21R expression by flow cytometry.

[4] = test system: isolated human CD4+ T cells; assay: IL-2 secretion from isolated stimulated CD4+ T cells; format: cell-based; details: anti-CD3 anti-CD28 Dynabeads, 0-1.25 μM, 24 hours; data not shown
Experimental: In brief, CD4+ and CD8+ T cells were isolated and immuno-magnetically separated from healthy human PBMCs. Levels of IL-2 were examined following anti-CD3 and anti-CD28 stimulation for 48 hours in the presence the Lck activating fusion polypeptide RSKAKNPLY-RRRRRRRRR (SEQ ID NO: 24).
The effect of Lck activating polypeptides on IL-2 secretion from CD4+ T cells in a stimulated CD4+ T cell assay was also examined. In brief, Isolated CD4+ T cells were stimulated with anti-CD3 anti-CD28 Dynabeads™ and cultured together with the Lck activating polypeptides RRRRRRRRR (SEQ ID NO: 6, “IK00900”) and RSKAKNPLY-RRRRRRRRR (SEQ ID NO: 24, “IK14800”), over a 5-concentration range plus vehicle control (0-1.25 μM) for 24 hours after which supernatants were assessed for IL-2 and IFN-γ by ELISA.

[5] = test system: isolated human CD4+ T cells; assay: IFN-γ secretion in stimulated CD4+ T cell assay; format: cell-based; details: anti-CD3 anti-CD28 Dynabeads, 24 hours
Experimental: as §1, with “CD4+” for “CD8+”, “was also” for “was”
The ability of Lck activating polypeptides comprising D amino acids to alter IFN-γ secretion by isolated human CD4+ T cells in a stimulated CD4+ T cell assay was also examined. In brief, Isolated CD4+ T cells were stimulated with anti-CD3 anti-CD28 Dynabeads™ and cultured together with the Lck activating polypeptide RSKAKNPLY-RRRRRRRRR (SEQ ID NO: 24, IK14800), or the Lck activating polypeptide RSKAKNPLY-RRRRRRRRR (SEQ ID NO: 24) comprising only D amino acids (SEQ ID NO: 129, IKD14800), for 24 hours after which supernatants were assessed for IFN-γ by ELISA.

wild-type Jurkat cells [6] = assay: IL-12 secretion in stimulated wild-type Jurkat cells (ELISA); format: cell-based, human; details: biotinylated anti-CD3, anti-CD28, avidin; 48 h exposure
Experimental: (§2) The ability of Lck activating polypeptides to alter IL-12 secretion was examined. In brief, wild-type Jurkat cells (an immortalised line of human T lymphocyte cells) were stimulated by exposure to biotinylated anti-CD3 antibody in the presence of anti-CD28 antibody and avidin. During the culture period (48 hours) cells were exposed to test polypeptides. Cell supernatant was assayed for IL-12 at the end of 48 hours using a standard commercially available ELISA kit as described above.
In brief, cells were seeded at 1 million cells per well (12 well plate, 2 mL volume) and stimulated with Biotin-CD3, CD28, and avidin (5:5:1.25 μg). The cells were then treated with IK14800 (SEQ ID NO: 24), IK15800 (SEQ ID NO: 58), IK14804 (SEQ ID NO: 65) and IK15804 (SEQ ID NO: 66). The cells were then incubated for 48 hours at 37° C. The supernatants (100 uL, n=3), were then analyzed for IL-12 content.
In brief, wild-type Jurkat cells (am immortalised line of human T lymphocyte cells) were stimulated by exposure to biotinylated anti-CD3 antibody in the presence of anti-CD28 antibody and avidin. Cells were seeded at 1 million cells per well (12 well plate, 2 mL volume) and stimulated with Biotin-anti-CD3, anti-CD28, and avidin (5:5:1.25 μg). Cells were treated with the test peptides and then incubated for 48 hours at 37° C. The supernatants (100 ul, n=3), were then analysed for IL-2 and IL-12 content. […]

wild-type Jurkat cells [7] = assay: IL-2 secretion in stimulated wild-type Jurkat cells (ELISA); format: cell-based, human; details: biotinylated anti-CD3, anti-CD28, avidin; 48 h exposure
Experimental: as §2, with “In” for “The ability of Lck activating polypeptides to alter IL-12 secretion was examined. In”, “(48 hours or 72” for “(48”, “IL-2” for “IL-12”, “48 or 72” for “48”
In brief, cells were seeded at 1 million cells per well (12 well plate, 2 mL volume) and stimulated with Biotin-CD3, CD28, and avidin (5:5:1.25 μg). The cells were then treated with IK14804, and then incubated for 48 hours at 37° C. The supernatant (100 uL, n=3), was then analyzed for IL-2 content.
In brief, wild-type Jurkat cells (am immortalised line of human T lymphocyte cells) were stimulated by exposure to biotinylated anti-CD3 antibody in the presence of anti-CD28 antibody and avidin. Cells were seeded at 1 million cells per well (12 well plate, 2 mL volume) and stimulated with Biotin-anti-CD3, anti-CD28, and avidin (5:5:1.25 μg). Cells were treated with the test peptides and then incubated for 48 hours at 37° C. The supernatants (100 ul, n=3), were then analysed for IL-2 and IL-12 content. During the culture period (48 hours) cells were exposed to test polypeptide RSKAKNPLYR-(2Adod)4-NH2 (SEQ ID NO: 128). Cell supernatant was assayed for IL-2 and IL-12 at the end of 48 hours using standard commercially available ELISA kit as described above.

CD4+ T cells = assay: IL-21 production by CD4+ T cells; format: cell-based; details: anti-CD3 anti-CD28, 48 hr; detected in one donor only
Experimental: In brief, CD4+ T cells were isolated and cultured in the presence of anti-CD3 anti-CD28 stimulation and RSKAKNPLY-RRRRRRRRR (SEQ ID NO: 24) for 24 hr or 48 hr. At the end of culture, supernatants were assessed for IL-21 by ELISA.

## RSKAKNPLY-RRRRRRRRR-HHHHHHHHHHHH (RSKAKNPLYRRRRRRRRRHHHHHHHHHHHH) [IK14820]
wild-type Jurkat cells [1]
  IL-2R alpha (CD25) expression: increased

## RSKAKNPLY-RRRRRRRRRR (RSKAKNPLYRRRRRRRRRR) [IK14900]
wild-type Jurkat cells [1]
  IL-2R alpha (CD25) expression: increased

## RRRRRRRRR [IK00900]
Human PBMCs
  IFN-γ secretion relative to no peptide control: induce IFN-γ secretion
[2]
  IL-12 (IL-12p70) secretion relative to cultures with anti-CD40L blocking antibody: induced IL-12 secretion
[3]
  IFN-γ secretion relative to no peptide control: induced IFN-γ secretion
Isolated CD4+ T cells
  IL-21R expression: do not increase IL-21R expression
[4]
  IL-2 secretion relative to control: induce IL-2 secretion
[5]
  IFN-γ secretion relative to no peptide control: induced IFN-γ secretion
wild-type Jurkat cells [6]
  IL-12 secretion relative to control: induced IL-12 secretion
wild-type Jurkat cells [7]
  IL-2 secretion relative to control: induces IL-2 secretion

## IL-6: control in FIG. 28 showing boost to IL-21 secretion
CD4+ T cells
  IL-21 production: boost to IL-21 secretion

## HHHHH-RSKAKNPLY-RRRRRRRRR (HHHHHRSKAKNPLYRRRRRRRRR) [IK11480]
wild-type Jurkat cells [1]
  IL-2R alpha (CD25) expression: increased

## rskaknply ([dR][dS][dK][dA][dK][dN][dP][dL][dY]) [IKD94000]
wild-type Jurkat cells [6]
  IL-12 secretion relative to control: increase IL-12 secretion
